According to patent US9475766B2, “Substituted aromatic sulfur compounds and methods of their use” (Cephalon, Inc., priority 2011, dated 2016):

Key:
Type in all cases: cell-based
[1] = test system: BxPC3 pancreatic cell line; test: Cell survival and adhesion assay (luciferase), BxPC3; settings: BXPC-3, 5 hours, BxPC3 cells overlayed onto human mesothelial cell monolayers, read-out: relative reduction in Luciferase activity, BxPC3 10 μM
Method: (§1) SU86 is a pancreatic cancer cell line. HT29 is a colon cancer cell line. BxPC3 is a pancreatic cell line. A2780 is an ovarian cancer cell line.
(§2) BxPc-3 and Su.86.86 pancreatic and HT-29 colon and A2780 ovarian cancer cell lines were purchased from ATCC and cultured in DMEM supplemented with 10% fetal bovine serum, glutamine, penicillin, and streptomycin. All cells were cultured at 37° C. in a humidified incubator in a 5% CO2 atmosphere. The cancer cell lines were transduced with a retrovirus containing pLuc-puro, a constitutive luciferase reporter and selected in […] media. Transient transfection of a full-length human c-FLIP construct in the vector pcDNA3 was performed as previously described. Scaife et al. Cancer Research 2002, 62: 6870-78.
(§3) Pancreatic cancer cell cultures (BxPc-3 and Su.86.86) and colon cancer (HT-29) and ovarian cancer (A2780) cells that were stably transfected with a firefly luciferase construct were transiently suspended with trypsin-PBS. 10^5 cells were overlayed onto confluent monolayers of human mesothelial cells in 96-well plates while simultaneously adding various concentrations of compounds of the invention or DMSO for 5 hours. The non-adherent cells were carefully washed away from the wells twice with 100 μl/well of blocking buffer (1% BSA in PBS) and twice again with ice-cold PBS. Adherent and surviving cells were detected by luciferase activity in a luminometer as follows. The cells were lysed in 0.1% TritonX-100, 25 mM Gly-Gly (7.8), MgSO4, 4 mM EGTA, 1 mM DTT. The total protein concentration was normalized with lysis buffer. 50 μl of cell lysate was added per well of a 96-well microtiter plate. 50 μl of luciferin substrate (Promega) was added per well and then the light output determined in a luminometer.

[2] = test system: A2780 ovarian cancer cell line; test: Cell survival and adhesion assay (luciferase), A2780; settings: 5 hours, A2780 cells overlayed onto human mesothelial cell monolayers, read-out: relative reduction in Luciferase activity, A2780 10 μM
Method: as §1, §2, §3

[3] = test system: SU86 pancreatic cancer cell line (Su.86.86); test: Cell survival and adhesion assay (luciferase), SU86; settings: 5 hours, SU86 cells overlayed onto human mesothelial cell monolayers, read-out: relative reduction in Luciferase activity, SU86 10 μM
Method: as §1, §2, §3

## CC(C)(C(=O)NCc1cccc(F)c1)c1ccc(S(=O)(=O)/C=C/C#N)cc1 [Example 39, 2-[4-((E)-2-Cyano-ethenesulfonyl)-phenyl]-N-(3-fluoro-benzyl)-isobutyramide]
[1]
  inhibition at 10 µM: 10 to 50%

## CC(C)(C(=O)NCCc1ccccc1)c1ccc(S(=O)(=O)/C=C/C#N)cc1 [Example 24, 2-[4-((E)-2-Cyano-ethenesulfonyl)-phenyl]-N-phenethyl-isobutyramide]
[1]
  inhibition at 10 µM: 50 to 85%
[2]
  inhibition at 10 µM: > 85%
[3]
  inhibition at 10 µM: 50 to 85%

## N#C/C=C/S(=O)(=O)c1ccc(C2(C(=O)NCc3ccc(F)cc3)CC2)cc1 [Example 67, 1-[4-((E)-2-Cyano-ethenesulfonyl)-phenyl]-cyclopropanecarboxylic acid 4-fluoro-benzylamide]
[1]
  inhibition at 10 µM: 50 to 85%
[2]
  inhibition at 10 µM: > 85%

## CC(C)(C(=O)NCc1ccc(F)cc1)c1ccc(S(=O)(=O)/C=C/C#N)cc1 [Example 18, 2-[4-((E)-2-Cyano-ethenesulfonyl)-phenyl]-N-(4-fluoro-benzyl)-isobutyramide]
[1]
  inhibition at 10 µM: 50 to 85%
[2]
  inhibition at 10 µM: > 85%
[3]
  inhibition at 10 µM: 50 to 85%

## COc1cccc(NC(=O)C(C)(C)c2cccc(S(=O)(=O)/C=C/C#N)c2)c1 [Example 36, 2-[3-((E)-2-Cyano-ethenesulfonyl)-phenyl]-N-(3-methoxy-phenyl)-isobutyramide]
[1]
  inhibition at 10 µM: 50 to 85%

## CC(C)(C(=O)NCc1ccc(-n2cccn2)cc1)c1ccc(S(=O)(=O)/C=C/C#N)cc1 [Example 21, 2-[4-((E)-2-Cyano-ethenesulfonyl)-phenyl]-N-(4-pyrazol-1-yl-benzyl)-isobutyramide]
[1]
  inhibition at 10 µM: 50 to 85%
[2]
  inhibition at 10 µM: 50 to 85%
[3]
  inhibition at 10 µM: 50 to 85%

## Cc1ccc(O)c(NC(=O)COc2ccc(S(=O)(=O)/C=C/C#N)cc2C(C)(C)C)c1 [Example 79, 2-[2-tert-Butyl-4-((E)-2-cyano-ethenesulfonyl)-phenoxy]-N-(2-hydroxy-5-methyl-phenyl)-acetamide]
[1]
  inhibition at 10 µM: > 85%
[2]
  inhibition at 10 µM: > 85%

## CCNc1nnc(C(C)(C)c2ccc(S(=O)(=O)/C=C/C#N)cc2)o1 [Example 48, (E)-3-{4-[1-(5-Ethylamino-[1,3,4]oxadiazol-2-yl)-1-methyl-ethyl]-benzenesulfonyl}-acrylonitrile]
[1]
  inhibition at 10 µM: < 10%
[2]
  inhibition at 10 µM: 10 to 50%
[3]
  inhibition at 10 µM: < 10%

## CC(C)(C(=O)NCc1ccc(F)cc1)c1cccc(S(=O)(=O)/C=C/C#N)c1 [Example 37, 2-[3-((E)-2-Cyano-ethenesulfonyl)-phenyl]-N-(4-fluoro-benzyl)-isobutyramide]
[1]
  inhibition at 10 µM: 50 to 85%

## COc1cccc(NC(=O)C(C)(C)c2ccc(S(=O)(=O)/C=C/C#N)cc2)c1 [Example 25, 2-[4-((E)-2-Cyano-ethenesulfonyl)-phenyl]-N-(3-methoxy-phenyl)-isobutyramide]
[1]
  inhibition at 10 µM: 50 to 85%
[2]
  inhibition at 10 µM: > 85%
[3]
  inhibition at 10 µM: 50 to 85%

## N#C/C=C/S(=O)(=O)c1ccc(C2(C(=O)NC3CCCCC3)CC2)cc1 [Example 68, 1-[4-((E)-2-Cyano-ethenesulfonyl)-phenyl]-cyclopropanecarboxylic acid cyclohexylamide]
[1]
  inhibition at 10 µM: 50 to 85%
[2]
  inhibition at 10 µM: > 85%

## CN(Cc1ccccc1)C(=O)C(C)(C)c1ccc(S(=O)(=O)/C=C/C#N)cc1 [Example 22, N-Benzyl-2-[4-((E)-2-cyano-ethenesulfonyl)-phenyl]-N-methyl-isobutyramide]
[1]
  inhibition at 10 µM: > 85%
[2]
  inhibition at 10 µM: > 85%
[3]
  inhibition at 10 µM: 50 to 85%

## CC(C)(c1ccc(S(=O)(=O)/C=C/C#N)cc1)c1nnc(Nc2ccccc2)o1 [Example 47, (E)-3-{4-[1-Methyl-1-(5-phenylamino-[1,3,4]oxadiazol-2-yl)-ethyl]-benzenesulfonyl}-acrylonitrile]
[1]
  inhibition at 10 µM: 50 to 85%
[2]
  inhibition at 10 µM: 50 to 85%
[3]
  inhibition at 10 µM: 10 to 50%

## N#C/C=C/S(=O)(=O)c1ccc(C2(C(=O)NCc3ccc(Cl)cc3)CCC2)cc1 [Example 76, 1-[4-((E)-2-Cyano-ethenesulfonyl)-phenyl]-cyclobutanecarboxylic acid 4-chloro-benzylamide]
[1]
  inhibition at 10 µM: 50 to 85%
[2]
  inhibition at 10 µM: > 85%

## N#C/C=C/S(=O)(=O)c1ccc(C2(C(=O)O)CCOCC2)cc1 [Example 82, 4-[4-((E)-2-Cyano-ethenesulfonyl)-phenyl]-tetrahydro-pyran-4-carboxylic acid]
[1]
  inhibition at 10 µM: < 10%
[2]
  inhibition at 10 µM: < 10%

## N#C/C=C/S(=O)(=O)c1ccc(C2(C(=O)NC3CCCCC3)CCOCC2)cc1 [Example 83, 4-[4-((E)-2-Cyano-ethenesulfonyl)-phenyl]-tetrahydro-pyran-4-carboxylic acid cyclohexylamide]
[1]
  inhibition at 10 µM: 10 to 50%
[2]
  inhibition at 10 µM: < 10%

## C#CCNC(=O)C(C)(C)c1ccc(S(=O)(=O)/C=C/C#N)cc1 [Example 19, 2-[4-((E)-2-Cyano-ethenesulfonyl)-phenyl]-N-prop-2-ynyl-isobutyramide]
[1]
  inhibition at 10 µM: 10 to 50%
[2]
  inhibition at 10 µM: 10 to 50%
[3]
  inhibition at 10 µM: 10 to 50%

## CC(C)(C(=O)NC1CCCCC1)c1cccc(S(=O)(=O)/C=C/C#N)c1 [Example 35, 2-[3-((E)-2-Cyano-ethenesulfonyl)-phenyl]-N-cyclohexyl-isobutyramide]
[1]
  inhibition at 10 µM: 50 to 85%

## N#C/C=C/S(=O)(=O)c1ccc(C2(C(=O)Nc3ccccc3)CCOCC2)cc1 [Example 84, 4-[4-((E)-2-Cyano-ethenesulfonyl)-phenyl]-tetrahydro-pyran-4-carboxylic acid phenylamide]
[1]
  inhibition at 10 µM: 10 to 50%
[2]
  inhibition at 10 µM: 10 to 50%

## Cc1ccc2oc(COc3ccc(S(=O)(=O)/C=C/C#N)cc3C(C)(C)C)nc2c1 [Example 81, (E)-3-[3-tert-Butyl-4-(5-methyl-benzoxazol-2-ylmethoxy)-benzenesulfonyl]-acrylonitrile]
[1]
  inhibition at 10 µM: 50 to 85%
[2]
  inhibition at 10 µM: > 85%

## CC(C)(C(=O)NCc1ccc(N)cc1)c1ccc(S(=O)(=O)/C=C/C#N)cc1 [Example 38, N-(4-Amino-benzyl)-2-[4-((E)-2-cyano-ethenesulfonyl)-phenyl]-isobutyramide]
[1]
  inhibition at 10 µM: 10 to 50%

## N#C/C=C/S(=O)(=O)c1ccc(C2(C(=O)Nc3ccccc3)CCC2)cc1 [Example 75, 1-[4-((E)-2-Cyano-ethenesulfonyl)-phenyl]-cyclobutanecarboxylic acid phenylamide]
[1]
  inhibition at 10 µM: > 85%
[2]
  inhibition at 10 µM: 50 to 85%

## N#C/C=C/S(=O)(=O)c1ccc(C2(C(=O)NC3CCCCC3)CCC2)cc1 [Example 77, 1-[4-((E)-2-Cyano-ethenesulfonyl)-phenyl]-cyclobutanecarboxylic acid cyclohexylamide]
[1]
  inhibition at 10 µM: 50 to 85%
[2]
  inhibition at 10 µM: > 85%

## N#C/C=C/S(=O)(=O)c1ccc(C2(C(=O)NCc3ccc(Cl)cc3)CCOCC2)cc1 [Example 85, 4-[4-((E)-2-Cyano-ethenesulfonyl)-phenyl]-tetrahydro-pyran-4-carboxylic acid 4-chloro-benzylamide]
[1]
  inhibition at 10 µM: 50 to 85%
[2]
  inhibition at 10 µM: 50 to 85%

## C[C@H](NC(=O)C(C)(C)c1ccc(S(=O)(=O)/C=C/C#N)cc1)c1ccccc1 [Example 16, 2-[4-((E)-2-Cyano-ethenesulfonyl)-phenyl]-N—((S)-1-phenyl-ethyl)-isobutyramide]
[1]
  inhibition at 10 µM: 50 to 85%
[2]
  inhibition at 10 µM: > 85%
[3]
  inhibition at 10 µM: 50 to 85%

## CC(C)(c1ccc(S(=O)(=O)/C=C/C#N)cc1)c1nc2ccccc2[nH]1 [Example 49, (E)-3-{4-[1-(1H-Benzimidazol-2-yl)-1-methyl-ethyl]-benzenesulfonyl}-acrylonitrile]
[1]
  inhibition at 10 µM: < 10%
[2]
  inhibition at 10 µM: < 10%
[3]
  inhibition at 10 µM: < 10%

## C[C@@H](NC(=O)C(C)(C)c1ccc(S(=O)(=O)/C=C/C#N)cc1)c1ccccc1 [Example 17, 2-[4-((E)-2-Cyano-ethenesulfonyl)-phenyl]-N—((R)-1-phenyl-ethyl)-isobutyramide]
[1]
  inhibition at 10 µM: 50 to 85%
[2]
  inhibition at 10 µM: > 85%
[3]
  inhibition at 10 µM: 50 to 85%

## N#C/C=C/S(=O)(=O)c1ccc(C2(C(=O)O)CCC2)cc1 [Example 74, 1-[4-((E)-2-Cyano-ethenesulfonyl)-phenyl]-cyclobutanecarboxylic acid]
[1]
  inhibition at 10 µM: < 10%
[2]
  inhibition at 10 µM: < 10%

## CC(C)(C)OC(=O)NCCOCCOCCNC(=O)C(C)(C)c1ccc(S(=O)(=O)/C=C/C#N)cc1 [Example 34, {2-[2-(2-{2-[4-((E)-2-Cyano-ethenesulfonyl)-phenyl]-2-methyl-propionylamino}-ethoxy)-ethoxy]-ethyl}-carbamic acid tert-butyl ester]
[1]
  inhibition at 10 µM: < 10%
